EPA's CvTdb concentration-time database

Legend:
[1] = system: Rat; test: concentration in plasma after dosing; details: 6 h; dosed: 2-Hydroxy-4-methoxybenzophenone; 500 mg/kg; oral; Male; F344
[2] = system: Rat; test: concentration in plasma after dosing; details: dosed: 2-Hydroxy-4-methoxybenzophenone, 250 mg/kg, oral, Male, F344
[3] = system: Rat; test: concentration in plasma after dosing; details: dosed: 2-Hydroxy-4-methoxybenzophenone, 100 mg/kg, oral, Female, F344
[4] = system: Mouse; test: concentration in plasma after dosing; details: 2 h; dosed: 2-Hydroxy-4-methoxybenzophenone; 500 mg/kg; oral; Male; B6C3F1
[5] = system: Mouse; test: concentration in plasma after dosing; details: 3 h; dosed: 2-Hydroxy-4-methoxybenzophenone; 50 mg/kg; iv; Male; B6C3F1
[6] = system: Mouse; test: concentration in plasma after dosing; details: 0.25 h; dosed: 2-Hydroxy-4-methoxybenzophenone; 50 mg/kg; iv; Male; B6C3F1
[7] = system: Mouse; test: concentration in plasma after dosing; details: 3 h; dosed: 2-Hydroxy-4-methoxybenzophenone; 250 mg/kg; oral; Female; B6C3F1
[8] = system: Rat; test: concentration in plasma after dosing; details: 0.25 h; dosed: 2-Hydroxy-4-methoxybenzophenone; 500 mg/kg; oral; Female; F344
[9] = system: Rat; test: concentration in plasma after dosing; details: dosed: Nitrite, 80 mg/kg, oral, Female, F344
[10] = system: Rat; test: concentration in plasma after dosing; details: dosed: Nitrite, 80 mg/kg, oral, Female, F344; remark: listed apart in the source
[11] = system: Rat; test: concentration in plasma after dosing; details: 5 min; dosed: Nitrite; 40 mg/kg; oral; Female; F344
[12] = system: Rat; test: concentration in plasma after dosing; details: dosed: Nitrite, 20 mg/kg, iv, Male, F344
[13] = system: Rat; test: concentration in plasma after dosing; details: 2 min; dosed: Nitrite; 80 mg/kg; oral; Female; F344
[14] = system: Rat; test: concentration in liver after dosing; details: 0.5 h; dosed: Fluorotelomer alcohol 8+2; 80 mg/kg; oral; Female; Harlan Sprague Dawley
[15] = system: Rat; test: concentration in liver after dosing; details: 1 h; dosed: Fluorotelomer alcohol 8+2; 24 mg/kg; oral; Male; Harlan Sprague Dawley
[16] = system: Rat; test: concentration in liver after dosing; details: 6 h; dosed: Perfluorooctanoic acid; 12 mg/kg; oral; Male; Harlan Sprague Dawley
[17] = system: Rat; test: concentration in brain after dosing; details: 24 h; dosed: Perfluorooctanoic acid; 12 mg/kg; oral; Male; Harlan Sprague Dawley
[18] = system: Rat; test: concentration in liver after dosing; details: 6 h; dosed: Fluorotelomer alcohol 8+2; 24 mg/kg; oral; Male; Harlan Sprague Dawley
[19] = system: Rat; test: concentration in brain after dosing; details: 192 h; dosed: Perfluorooctanoic acid; 12 mg/kg; oral; Male; Harlan Sprague Dawley
[20] = system: Rat; test: concentration in brain after dosing; details: 3 h; dosed: Perfluorooctanoic acid; 12 mg/kg; oral; Male; Harlan Sprague Dawley
[21] = system: Rat; test: concentration in liver after dosing; details: 6 h; dosed: Perfluorooctanoic acid; 12 mg/kg; oral; Male; Harlan Sprague Dawley; remark: listed apart in the source
[22] = system: Rat; test: concentration in liver after dosing; details: 24 h; dosed: Perfluorooctanoic acid; 12 mg/kg; oral; Male; Harlan Sprague Dawley
[23] = system: Rat; test: concentration in kidney after dosing; details: 3 h; dosed: Fluorotelomer alcohol 8+2; 24 mg/kg; oral; Male; Harlan Sprague Dawley
[24] = system: Rat; test: concentration in kidney after dosing; details: 3 h; dosed: Perfluorooctanoic acid; 80 mg/kg; oral; Female; Harlan Sprague Dawley
[25] = system: Rat; test: concentration in kidney after dosing; details: 6 h; dosed: Fluorotelomer alcohol 8+2; 24 mg/kg; oral; Male; Harlan Sprague Dawley
[26] = system: Rat; test: concentration in plasma after dosing; details: dosed: 678-39-7, 12 mg/kg, iv, Male, F344
[27] = system: Rat; test: concentration in kidney after dosing; details: 3 h; dosed: Fluorotelomer alcohol 8+2; 80 mg/kg; oral; Female; Harlan Sprague Dawley
[28] = system: Rat; test: concentration in kidney after dosing; details: 12 h; dosed: Perfluorooctanoic acid; 12 mg/kg; oral; Male; Harlan Sprague Dawley
[29] = system: Rat; test: concentration in brain after dosing; details: 3 h; dosed: Potassium Perfluorobutane Sulfonate; 20 mg/kg; oral; Male; Harlan Sprague Dawley
[30] = system: Rat; test: concentration in kidney after dosing; details: 0.5 h; dosed: Potassium Perfluorobutane Sulfonate; 20 mg/kg; oral; Male; Harlan Sprague Dawley
[31] = system: Rat; test: concentration in plasma after dosing; details: 0.5 h; dosed: Potassium Perfluorobutane Sulfonate; 4 mg/kg; iv; Male; F344
[32] = system: Rat; test: concentration in plasma after dosing; details: dosed: Potassium Perfluorobutane Sulfonate, 4 mg/kg, iv, Male, F344
[33] = system: Rat; test: concentration in plasma after dosing; details: dosed: Potassium Perfluorobutane Sulfonate, 20 mg/kg, oral, Male, Harlan Sprague Dawley
[34] = system: Rat; test: concentration in plasma after dosing; details: dosed: Potassium Perfluorobutane Sulfonate, 4 mg/kg, oral, Male, Harlan Sprague Dawley
[35] = system: Rat; test: concentration in plasma after dosing; details: 0.25 h; dosed: Potassium Perfluorobutane Sulfonate; 4 mg/kg; iv; Male; F344
[36] = system: rat; test: amount in urine after dosing (umol); details: dosed: methanol, 100 mg/kg, iv, male, CDF(F344)/CrlBR

COc1ccc(C(=O)c2ccccc2)c(O)c1 [2-Hydroxy-4-methoxybenzophenone]
Details | concentration in plasma [ng/mL]
[1] | 293
[4] | 90.1
[5] | 218
[6] | 7110
[7] | 35.5
[8] | 619

concentration in plasma [ng/mL]
Details | [2] | [3]
0.25 h | 318 | 84.6
4 h | 48.1 | 16.2

O=N[O-] [Nitrite]
Details | concentration in plasma [ng/mL]
[9], 1 h | 19000
[9], 2 h | 8500
[10], 5 min | 6900
[10], 8 h | 1800
[12], 0.75 h | 2300
[12], 2 min | 21300

Details | concentration in plasma [ng/mL]
[11] | 8500
[13] | 7000

O=C(O)C(F)(F)C(F)(F)C(F)(F)C(F)(F)C(F)(F)C(F)(F)C(F)(F)F [Perfluorooctanoic acid]
Details | concentration in brain [ng/g] | concentration in kidney [ng/g] | concentration in liver [ng/g]
[14] | – | – | 579
[15] | – | – | 676
[16] | – | – | 63400
[17] | 1210 | – | –
[18] | – | – | 1350
[19] | 543 | – | –
[20] | 913 | – | –
[21] | – | – | 57200
[22] | – | – | 62500
[23] | – | 317 | –
[24] | – | 49700 | –
[25] | – | 381 | –
[27] | – | 2070 | –
[28] | – | 27000 | –

[26]
Details | concentration in plasma [ng/mL]
3 h | 485
5 min | 58.3

O=S(=O)([O-])C(F)(F)C(F)(F)C(F)(F)C(F)(F)F.[K+] [Potassium Perfluorobutane Sulfonate]
Details | concentration in brain [ng/g] | concentration in kidney [ng/g] | concentration in plasma [ng/mL]
[29] | 552 | – | –
[30] | – | 9690 | –
[31] | – | – | 12000
[35] | – | – | 17900

concentration in plasma [ng/mL]
Details | 0.25 h | 0.75 h | 12 h | 24 h
[32] | – | 21100 | – | 171
[33] | 30200 | – | – | 1070
[34] | – | 14200 | 2550 | –

CO [methanol]
[36]
Details | amount in urine
0.9988 h | 1.09
2.972 h | 5.07
5.961 h | 7.79
9.961 h | 11.5
11.92 h | 11.7
14.89 h | 11.7
